Reference: US12691124B2, “Methods of controlling and improving brain health” (ICAHN SCHOOL OF MEDICINE AT MOUNT SINAI, priority 2019, dated 2026)

What was measured:
[1] = tested on: primary microglia; assay: Gene expression in primary microglia treated with IBET858; assay type: cell-based, mouse
Protocol: Primary Microglia Culture. Postnatal day 0 C57/Bl6 mice were decapitated in ice cold HBSS. The forebrain was rapidly dissected and treated as above in order to generate a single cell suspension. 60,000 cells per cm2 were seeded in vented, Poly-D-lysine coated flasks. Mixed glial cultures were maintained in DMEM containing 10% FBS and 1% penicillin/streptomycin for 3 weeks. After three weeks, microglia were isolated by shaking the mixed glial cultures for 4 hours at 360 rpm and re-plated at density on 100,0000 cells/cm2. Cultures were given 24 hours to settle before treatment. Cultures were pre-treated for 30 minutes with either DMSO (0.01%) or 1 uM IBET858. After 30 minutes, LPS (100 ng/ml) was added to the cultures. RNA was isolated with Trizol LS according to the manufacturer's recommendations after 1, 4 and 12 hours of LPS treatment.
To test the role of BET proteins in microglial gene expression, primary microglia cultures from mouse forebrain were treated with the brain-permeable BET inhibitors IBET858 (1 μM) for 1, 4, or 12 hours (FIG. 3A). Because loss of BET activity in macrophages negatively impacts differentiation and proliferation189, microglia identity genes were examined to understand if microglial lineage is regulated by BET proteins (FIG. 3C). Hexb, Fcrls, and Fcer1g expression was unaffected by IBET858 indicating microglial differentiation is unaffected.

[2] = tested on: primary cortical neurons; assay: Seahorse mitochondrial stress test; assay type: cell-based, mouse
Protocol: Seahorse Mitochondrial Stress Test. In this assay, two fluorescent probes that detect the concentration of oxygen or protons are added to the culture media. Cellular metabolism causes rapid changes in the concentration of these molecules in the media which can be detected by changes in sensor fluorescence. The oxygen consumption rate (OCR) indicates mitochondrial respiration and the extracellular acidification rate (ECAR) is largely due to glycolysis. Certain pathways can be analyzed by the sequential addition of inhibitors to the media and measuring ensuing changes to the OCR and ECAR. First baseline readings are measured to give an understanding of basal metabolic rates. Then the last step of oxidative phosphorylation, the ATP synthase, is inhibited by oligomycin to determine how much oxygen is being used for ATP production. FCCP is next added to decouple the electron transport chain from the ATP synthase by increasing proton permeability of the membrane which drives oxidative phosphorylation to its maximum. Lastly, complex I is inhibited by rotenone to completely shut down mitochondrial respiration. Any oxygen that is consumed after rotenone is due to other cellular processes such as fatty acid metabolism. On the day of the assay, cultures were washed times with artificial CSF (aCSF) [120 mM NaCl, 3.5 mM KCl, 1.3 mM CaCl2, 1 mM MgCl2, 0.4 mM KH2PO4, 5 mM HEPES, 0.4% BSA, 10 mM Sodium-pyruvate, 15 mM Glucose], and incubated at 37° C. without CO2 for one hour prior to assay. Oxygen Consumption rate (OCR) was measured using the Seahorse XFe24 Analyzer (Agilent), under basal conditions and after the sequential addition of […] [carbonyl cyanide p-(trifluoromethoxy) phenylhydrazone], […]. Metrics were calculated according to the following equations. All values were calculated per well and normalized to cell number for each experiment. Each experiment was normalized to the average of all controls across all experiments (n=3) performed.
To understand if this was the case, the major energetic pathway in neurons, mitochondrial respiration, after BET inhibition was assessed using Seahorse technology. […] In addition to lower mitochondrial activity, proton leak which contributes to the production of reactive oxygen species (ROS) is lower after BET inhibition. Because increased ROS levels are detrimental to neuronal health, lower ROS production could also increase neuronal survival after BET inhibition.
Glycolysis also contributes to neuronal metabolism and several key glycolytic metabolites (Fructose 6-phosphate, Glucose-6-phosphate, Phosphoenolpyruvate) were decreased after IBET858. […] Additionally, the decreased maximal responses indicate that this metabolic state is relatively stable.

[3] = tested on: mTOR; assay: mTOR signaling in neurons (p70-S6k Thr389 phosphorylation); assay type: cell-based, mouse
Protocol: Immunoblotting. Mice were anesthetized with CO2 followed by decapitation, and the region of interest was rapidly dissected and frozen in liquid nitrogen and stored at −80° C. until further processing. Samples were sonicated at 4° C. in 1% SDS solution supplemented with protease, Trichostatin A (500 ng/ml) and PhosStop phosphatase inhibitor (Roche, Switzerland), and boiled for ten minutes. The protein concentration was determined using a BCA protein assay kit (ThermoFisherScientific, USA) according to the manufacturer's instructions. Protein samples were diluted in equal volume of 2×LDS sample buffer (Invitrogen) and supplemented with DTT to a final concentration of 200 mM (Sigma).
Additionally, there is significant agreement between genes sensitive to BET inhibition and mTOR inhibition.

[4] = tested on: C57bl/6 mice; assay: Kainic acid injection in the hippocampus, cCASP3 immunostaining; assay type: in vivo, mouse; details: 30 mg/kg i.p. daily 1 week, then kainic acid, 24 h
Protocol: C57bl/6 mice were daily treated with IBET858 (30 mg/kg, i.p.) for 1 week, followed by stereotaxic injection of kainic acid in the hippocampus. Mice were perfused 24 hours after kainic acid injection and brains were immunostained for cCASP3 to identify dying cells.

[5] = tested on: young mice; details: cited from earlier work

CC(=O)N1c2ccc(-c3ccc(CN4CCCCC4)cc3)cc2[C@H](Nc2ccccc2)CC1C (stereo in doubt) [IBET858]
immune response and cell activation pathway genes ([1]; 1 μM): suppresses
genes significantly down-regulated ([1]; 1 μM IBET858, 4 hours): 1245 genes
genes significantly down-regulated ([1]; 1 μM IBET858, 12 hours): 1175 genes
microglia identity gene expression (Hexb, Fcrls, Fcer1g) ([1]; 1 μM, 1, 4 or 12 hours): unaffected
phagocytosis gene expression ([1]; 1 μM, all time points): also unaffected
mitochondrial coupling efficiency ([2]; 24 h or 1 week IBET858): increased coupling efficiency
basal glycolysis (extracellular acidification rate) ([2]; chronic BET inhibition): slightly decreased
basal mitochondrial respiration rates ([2]; chronic BET inhibition): significantly decreases
decrease in ATP production ([2]; chronic BET inhibition): 50%
maximum glycolytic rate ([2]; chronic BET inhibition): significantly attenuated
maximum mitochondrial activity ([2]; chronic BET inhibition): also decreased
proton leak ([2]; chronic BET inhibition): lower
mTOR activity, phosphorylation of p70-S6k at Thr389 [3]: significant, time-dependent decrease
mTOR protein levels [3]: does not affect
glutamate-induced toxicity in vivo (cCASP3 dying cells) [4]: protects neurons from glutamate-induced toxicity in vivo
neuronal gene expression in young mice ([5]; mouse, in vivo): selective suppression of neuronal gene expression
behavioural phenotype of young mice ([5]; pharmacological suppression of BET proteins in the brain of young mice): development of an autism-like syndrome
